This assay relates to cells infected with the SF1 gene or the SF1+MC2R+MRAP genes. Briefly: ACTH stimulation of hiSCs: cortisol and aldosterone secretion. The format is cell-based, human. The note with it: ACTH 0 nM, 10 nM.

Take “adrenocorticotropic hormone (SYSMEHFRWGKPVGKKRRPVKVYPNGAEDESAEAFPLEF; Corticotropin; UniProt P01189 138-176, looked up) [ACTH, hormone secreted by the anterior pituitary gland, used to stimulate the cells]”: the production/secretion of cortisol entry (1 uM (FIG. 15B)) is listed as “increasing with administration of increasing ACTH dosage”. Besides, where the note is “1 uM (FIG. 15C)”, the production/secretion of aldosterone entry is “increasing with administration of increasing ACTH dosage”.

The values above are taken from patent US20250277187A1, “A METHOD FOR PRODUCING INDUCED STEROIDOGENIC CELLS AND USE THEREOF IN CELL THERAPY” (TECHNISCHE UNIVERSITAET DRESDEN, priority 2021, published 2025).
